Activity calls are given as the source filed them. The rule behind the calls is not given here.
Columns and labels:
[1] = test system: NCI-H460; assay: Anticancer activity against human NCI-H460 cells assessed as cell growth level at 10 uM after 48 hrs by sulforhodamine B assay; format: functional
[2] = test system: SK-MEL-28; assay: Anticancer activity against human SK-MEL-28 cells assessed as cell growth level at 10 uM after 48 hrs by sulforhodamine B assay; format: functional
[3] = test system: DU-145; assay: Anticancer activity against human DU145 cells assessed as cell growth level at 10 uM after 48 hrs by sulforhodamine B assay; format: functional
[4] = test system: SN12C; assay: Anticancer activity against human SN12C cells assessed as cell growth level at 10 uM after 48 hrs by sulforhodamine B assay; format: functional
[5] = test system: T47D; assay: Anticancer activity against human T47D cells assessed as cell growth level at 10 uM after 48 hrs by sulforhodamine B assay; format: functional
[6] = test system: K562; assay: Anticancer activity against human K562 cells assessed as cell growth level at 10 uM after 48 hrs by sulforhodamine B assay; format: functional
[7] = Anticancer activity against human COLO205 cells assessed as cell growth level at 10 uM after 48 hrs by sulforhodamine B assay; format: functional, COLO 205
[8] = test system: Rattus norvegicus; assay: Antidiabetic activity in Wistar rat model of streptozotocin-induced diabetes assessed as reduction in plasma glucose level at 30 mg/kg, po and dosage repeated for 15 days by GOD-POD method; format: functional, organism-based; parameters: dose 30 mg/kg
[9] = test system: NCI-H322M; assay: Anticancer activity against human NCI-H322M cells assessed as cell growth level at 10 uM after 48 hrs by sulforhodamine B assay; format: functional
[10] = Anticancer activity against human OVCAR8 cells assessed as cell growth level at 10 uM after 48 hrs by sulforhodamine B assay; format: functional, OVCAR-8
[11] = test system: HL-60(TB); assay: Anticancer activity against human HL-60(TB) cells assessed as cell growth level at 10 uM after 48 hrs by sulforhodamine B assay; format: functional
[12] = test system: TK-10; assay: Anticancer activity against human TK10 cells assessed as cell growth level at 10 uM after 48 hrs by sulforhodamine B assay; format: functional
[13] = test system: A549; assay: Anticancer activity against human A549/ATCC cells assessed as cell growth level at 10 uM after 48 hrs by sulforhodamine B assay; format: functional
[14] = test system: SW-620; assay: Anticancer activity against human SW620 cells assessed as cell growth level at 10 uM after 48 hrs by sulforhodamine B assay; format: functional
[15] = Anticancer activity against human HCC2998 cells assessed as cell growth level at 10 uM after 48 hrs by sulforhodamine B assay; format: functional, HCC 2998
[16] = Anticancer activity against human SF539 cells assessed as cell growth level at 10 uM after 48 hrs by sulforhodamine B assay; format: functional, SF-539
[17] = Anticancer activity against human OVCAR4 cells assessed as cell growth level at 10 uM after 48 hrs by sulforhodamine B assay; format: functional, OVCAR-4
[18] = test system: Rattus norvegicus; assay: Increase in body weight in Wistar rat model of streptozotocin-induced diabetes at 30 mg/kg, po measured over 15 days; format: ADME, organism-based; parameters: dose 30 mg/kg, route oral; settings: in vivo, 360 h

For `COc1ccc(NC(=O)NS(=O)(=O)c2ccc(N3N=C(c4cccs4)CC3c3ccc(C)s3)cc2)cc1` (centres undefined), the Activity [1] was 108.95%, the Activity [2] was 48.3% and the Activity [3] was 105.62%. For the same compound, the Activity [4] was 111.79%, the Activity [5] was 85.68% and the Activity [6] was 111.39%. For the same compound, the Activity [7] was -63.47%, the inhibition [8] was “Active” and the Activity [9] was 102.37%. It also gave an Activity [10] of 106.9%, an Activity [11] of 102.86% and an Activity [12] of 96.03%. It also gave an Activity [13] of 5.45%, an Activity [14] of 107.16% and an Activity [15] of 111.31%. The Activity [16] was 104.31% and the Activity [17] was 102.84%.
Compound `Cc1ccc(NC(=O)NS(=O)(=O)c2ccc(N3N=C(c4cccs4)CC3c3ccc(C)s3)cc2)cc1` (centres undefined) has an Activity [1] of 103.16%, an Activity [2] of 47.8% and an Activity [3] of 102.33%. It also gave an Activity [4] of 111.21%, an Activity [5] of 78.79% and an Activity [6] of 113.81%. The Activity [7] was -54.62%, the Activity [9] was 103.57% and the Activity [10] was 99.82%. For the same compound, the Activity [11] was 126.37%, the Activity [12] was 96.78% and the Activity [18] was “Toxic”. The Activity [13] was 101.55%, the Activity [14] was 106.34% and the Activity [15] was 108.61%. For the same compound, the Activity [16] was 98.31% and the Activity [17] was 106.4%.

— ChEMBL document CHEMBL3351675, “Novel benzenesulfonylureas containing thiophenylpyrazoline moiety as potential antidiabetic and anticancer agents” (Bioorg Med Chem Lett, 2014)
